Measurements from US8592419B2, “Ceramides and apoptosis-signaling ligand” (MUSC Foundation for Research Development, priority 2004, dated 2013).

Tests used:
Format in all cases: cell-based, human
PPC-1/pcDNA3 cells = experiment: MTS cell viability assay in PPC-1/pcDNA3 cells with kinase inhibitors; conditions: 20 μM SB-203580, 40 μM SP600125, LCL204 8 hours
Method: MTS cytotoxicity assays for LCL204 treatments. Cell viability was determined using the CellTiter 96 AQueous One Solution Cell Proliferation Assay (Promega; Madison, Wis., USA). 1×10^4 cells per well were seeded in 96-well plates overnight. The next day media was removed and replaced with either 100 μl media with vehicle control or media containing LCL204 at desired concentrations. Assays were carried out according to manufacturer's instruction as previously described (60). For experiments using enzyme inhibitors and LCL204, media was removed and replaced with 50 μl media containing vehicle only or indicated inhibitor. Cells were pretreated 1 hour at 37° C. before adding 50 μl media containing vehicle, inhibitor only, LCL204 only (2× concentration), or a combination. The remainder of the assay was carried out as described above.
Stable transfections. Both CMV-TAM67 and pcDNA3 vectors were from Dr. Michael Birrer (National Cancer Institute; Rockville, Md.). PPC-1 cells (7×10^5) were transfected with 4 μg of DNA in 60 mm dishes using FuGENE6 according to the manufacturer's instructions. Stably transfected clones were selected in 400 μg/mL G418 (Sigma). TAM67 was detected by Western blot analysis using an antibody for c-Jun (Ab-1, Oncogene) as described above.

Bak = Bak protein level and Bak foci (Western blot, confocal microscopy); conditions: PPC-1 transfectants, with LCL204 7.5 μM
Method: (§1) Immunoblot analysis. Cells were seeded in 60mm plates as described above and treated accordingly. Cells were lifted by gently scraping the plates, washed once with ice cold PBS and then lysed in lysis buffer (PBS, 1% Triton X-100, 10% glycerol) containing protease inhibitors pepstatin A (0.5 μg/ml), leupeptin (0.5 μg/ml), aprotinin (5 μg/ml), and PMSF (100 μg/ml) for 10 minutes on ice. Insoluble material was removed by centrifugation at 14,000 rpm for 15 minutes at 4° C. The supernatants were then supplemented with SDS at a final concentration of 2% and stored at −80° C. Protein concentrations were determined using the DC Protein Assay (BioRad Laboratories; Hercules, CA, USA) according to the manufacturer's instructions. 50 μg of protein per sample (unless otherwise indicated) were separated on NuPAGE 4-12% Bis-Tris gels (Invitrogen; Carlsbad, CA, USA) and transferred to nitrocellulose membranes (BioRad). Following transfer, membranes were blocked for 1 hour at room temperature in Tris-buffered saline (TBS) containing 0.1% Tween-20 and 5% nonfat dry milk and incubated overnight at 4° C. with primary antibody at a dilution of 1:2,000(actin), 1:1,000(cytochrome c, COX IV, Bax, Bak, p53, p38, P-p38), 1:500(P-JNK, JNK), 1:250 (AC, p73), or 1:400(LAMP-1, cathepsin B). Overnight incubations were performed in 5% milk in TBS-Tween. Following overnight incubation, membranes were washed three times for 10 minutes each in TBS-Tween and incubated for 1 hour at room temperature with secondary antibody in 5% milk TBS-Tween at a dilution 1:5,000 (goat anti-mouse IgG) or 1:50,000 (goat anti-rabbit). Membranes were then washed three times more and incubated for 5 minutes at room temperature with Super Signal HRP substrate (Pierce Biotechnology Inc.; Rockford, IL, USA).
Confocal Microscopy and Immunocytochemistry. DU145 cells were grown in 4.3 cm^2 chamber slides (Nalge Nunc) and transfected with YFPmito alone or with the dominant-negative inhibitor of Drp1(K38A) (64) using FuGENE6 (Roche; Indianapolis, IN) according to the manufacturer's instructions using 1 μg of total DNA per chamber. 24 hr after transfection and 30 min prior to treatment with 15 μM LCL204, cells were exposed to zVAD-fmk (50 μM). The slides were fixed with 4% paraformaldehyde for 20 min then permeabilized with 0.2% Triton X-100 for 15 min, followed by blocking with 4% bovine serum albumin for 45 min at RT. Cells were probed with rabbit polyclonal 2-14 anti-Bak antibody (1:5000; BioChem) for 2 hr then stained with goat anti-rabbit Alexa Fluor 543 antibodies (1:250; Molecular Probes) for 45 min. After washing, cells were imaged using the 63x objective of an LSM 510 Zeiss confocal microscope.

p73 = experiment: Immunoblot of p73
Method: as §1

C[S+]([O-])c1ccc(-c2nc(-c3ccncc3)c(-c3ccc(F)cc3)[nH]2)cc1 (stereo not shown) [SB-203580, reference compound]
effect on LCL204 cell killing (PPC-1/pcDNA3 cells): inhibited cell killing to a similar extent | effect of p38 MAPK inhibitor on LCL204-mediated Bak protein levels (Bak): did not appear to block | basal p73 levels, inhibitor alone (p73; PPC-1/pcDNA3 and PPC-1/TAM67 cells, 5 hours): lowered basal p73 levels | effect of kinase inhibitor on LCL204-induced p73 induction (p73; PPC-1 transfectants, with LCL204 7.5 μM): blocked the LCL204-induced p73 up-regulation
